Results taken from PMC8725448 (Journal of Cannabis Research, 2022).
“And” between values parts separate entries of the source, which are not always exact repeats. Identical values can stand only once. Like-named read-outs stand apart in the source and are kept apart here.

What was measured:
[1] = system: hyperthermia-induced seizures in Scn1a^+/- mice; details: cited from earlier work
[2] = system: control HEK293 cells; assay: GPR55 negative control pERK experiment; assay type: cell-based, human; details: 10 μM; control HEK293 cells without GPR55
Protocol: ERK phosphorylation (pERK) was detected using the AlphaScreen® SureFire® Phospho-ERK1/2 assay (Perkin Elmer; Waltham, USA) as previously described (Anderson et al. [2021b]). Briefly, the human embryonic kidney (HEK) 293 cells stably expressing human GPR55 in L-15 media were plated (110,000/well) into a Corning CellBIND (Corning Inc; Corning, USA) clear, flat-bottomed 96-well plate and incubated 20–24 h at 37°C in ambient CO2. Media was aspirated, 50 μL phenol red-free DMEM/F-12 was added to each well and incubated for 2–3 h at 37°C in a humidified 5% CO2 atmosphere. Compounds (10 μM in phenol red-free DMEM/F-12) were added and incubated for 20 min before media was aspirated and lysis buffer was added. Lysates (5 μL) were incubated with reaction mixture (7 μL) for 3.5 h at room temperature. A CLARIOstar plate reader (BMG Labtech; Offenburg, GER) was used to take fluorescence readings over 740 msec (excitation 680 nm, emission 520–620 nm). Fluorescence readings were normalized to those of 4 μM LPI, the endogenous GPR55 agonist. No effect of LPI (10 μM) is observed in control HEK293 cells (Supplemental Fig. 1). Final DMSO concentrations were ≤ 0.2%. […]
(LPI). Data are expressed as mean ± SEM normalized to 100 nM phorbol 12-myrisate 13-acetate (PMA), […]

[3] = molecular target: T1, CaV3.1 (Homo sapiens, UniProt O43497); set-up: method as in Anderson et al. 2021a, 2021b and unpublished data; details: at therapeutically relevant concentrations; ref Anderson et al. 2021a, 2021b and unpublished data; cited from earlier work
T1 construct: expressed in transfected cells; host or cells: Flp-In T-REx HEK (tetracycline-induced)

[4] = set-up: method as in Anderson et al. 2019b; details: CBGA; ref Anderson et al. 2019b; cited from earlier work
[5] = molecular target: T2, human GPR55 (Homo sapiens, UniProt Q9Y2T6); set-up: method as in Anderson et al. 2021a, 2021b and unpublished data; details: at therapeutically relevant concentrations; ref Anderson et al. 2021a, 2021b and unpublished data; cited from earlier work
T2 construct: expressed in transfected cells; host or cells: HEK293

[6] = system: maximal electroshock (MES) seizure threshold; set-up: method as in Anderson et al. 2021b; details: ref Anderson et al. 2021b; cited from earlier work
[7] = ref Anderson et al. 2019b, 2021a, 2021b

T1 sequence (O43497 whole entry): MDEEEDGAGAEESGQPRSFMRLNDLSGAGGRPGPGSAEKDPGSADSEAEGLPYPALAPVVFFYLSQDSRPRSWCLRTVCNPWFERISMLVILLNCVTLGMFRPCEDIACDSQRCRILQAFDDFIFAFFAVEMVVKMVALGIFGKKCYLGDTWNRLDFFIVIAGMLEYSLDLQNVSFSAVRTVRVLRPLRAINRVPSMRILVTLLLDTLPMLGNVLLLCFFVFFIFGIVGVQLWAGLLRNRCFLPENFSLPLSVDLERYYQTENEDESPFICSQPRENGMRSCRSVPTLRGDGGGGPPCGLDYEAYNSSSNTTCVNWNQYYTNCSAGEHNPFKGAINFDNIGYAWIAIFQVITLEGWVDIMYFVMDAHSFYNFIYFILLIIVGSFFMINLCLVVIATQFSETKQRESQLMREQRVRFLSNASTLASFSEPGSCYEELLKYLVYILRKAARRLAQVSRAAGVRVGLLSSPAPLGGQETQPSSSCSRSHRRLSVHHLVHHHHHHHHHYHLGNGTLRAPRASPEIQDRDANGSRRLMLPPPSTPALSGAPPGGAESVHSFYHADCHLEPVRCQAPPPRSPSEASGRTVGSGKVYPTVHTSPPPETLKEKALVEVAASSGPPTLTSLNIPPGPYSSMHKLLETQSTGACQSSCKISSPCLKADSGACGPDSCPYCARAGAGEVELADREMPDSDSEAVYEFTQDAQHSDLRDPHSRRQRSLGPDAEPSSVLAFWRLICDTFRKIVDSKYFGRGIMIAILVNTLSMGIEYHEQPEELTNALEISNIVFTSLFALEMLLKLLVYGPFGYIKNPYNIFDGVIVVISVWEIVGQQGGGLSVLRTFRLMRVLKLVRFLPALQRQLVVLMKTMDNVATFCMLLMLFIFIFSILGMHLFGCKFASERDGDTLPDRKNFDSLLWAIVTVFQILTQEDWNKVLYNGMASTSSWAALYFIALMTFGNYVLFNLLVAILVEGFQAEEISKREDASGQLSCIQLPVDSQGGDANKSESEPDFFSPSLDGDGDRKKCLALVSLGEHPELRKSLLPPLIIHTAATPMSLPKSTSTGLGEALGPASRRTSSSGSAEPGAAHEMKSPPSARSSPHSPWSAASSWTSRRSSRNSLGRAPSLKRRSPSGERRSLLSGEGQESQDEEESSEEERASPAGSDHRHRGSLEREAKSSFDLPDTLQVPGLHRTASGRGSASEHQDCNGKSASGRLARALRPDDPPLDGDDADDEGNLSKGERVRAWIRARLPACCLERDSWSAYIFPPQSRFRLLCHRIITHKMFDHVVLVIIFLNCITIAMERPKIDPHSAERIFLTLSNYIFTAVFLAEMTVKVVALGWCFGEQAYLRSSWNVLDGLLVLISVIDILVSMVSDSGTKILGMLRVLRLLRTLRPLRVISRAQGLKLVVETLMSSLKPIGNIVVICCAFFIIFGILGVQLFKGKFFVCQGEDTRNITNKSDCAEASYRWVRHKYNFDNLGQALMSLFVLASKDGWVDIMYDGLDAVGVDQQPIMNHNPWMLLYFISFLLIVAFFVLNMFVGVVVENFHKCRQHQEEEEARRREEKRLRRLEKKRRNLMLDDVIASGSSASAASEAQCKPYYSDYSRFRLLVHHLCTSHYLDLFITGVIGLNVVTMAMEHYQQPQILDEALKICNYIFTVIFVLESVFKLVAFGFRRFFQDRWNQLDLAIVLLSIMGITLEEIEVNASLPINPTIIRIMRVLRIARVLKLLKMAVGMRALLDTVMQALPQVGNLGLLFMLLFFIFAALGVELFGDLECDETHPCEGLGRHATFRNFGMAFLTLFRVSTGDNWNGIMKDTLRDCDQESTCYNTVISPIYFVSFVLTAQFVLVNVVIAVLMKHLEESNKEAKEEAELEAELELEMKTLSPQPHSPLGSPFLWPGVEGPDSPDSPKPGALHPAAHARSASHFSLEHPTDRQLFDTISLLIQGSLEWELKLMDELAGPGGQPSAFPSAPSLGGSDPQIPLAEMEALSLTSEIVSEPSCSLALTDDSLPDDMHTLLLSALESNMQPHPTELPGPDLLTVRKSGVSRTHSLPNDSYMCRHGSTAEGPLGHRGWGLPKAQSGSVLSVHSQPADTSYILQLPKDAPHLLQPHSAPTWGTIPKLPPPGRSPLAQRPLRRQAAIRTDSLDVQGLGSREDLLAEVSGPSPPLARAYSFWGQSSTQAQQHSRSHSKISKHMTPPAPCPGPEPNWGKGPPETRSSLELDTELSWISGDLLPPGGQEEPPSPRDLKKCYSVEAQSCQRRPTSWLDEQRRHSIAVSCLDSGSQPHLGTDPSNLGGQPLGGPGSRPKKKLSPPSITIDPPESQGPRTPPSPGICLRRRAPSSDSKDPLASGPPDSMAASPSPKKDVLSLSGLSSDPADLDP
T2 sequence (Q9Y2T6 whole entry): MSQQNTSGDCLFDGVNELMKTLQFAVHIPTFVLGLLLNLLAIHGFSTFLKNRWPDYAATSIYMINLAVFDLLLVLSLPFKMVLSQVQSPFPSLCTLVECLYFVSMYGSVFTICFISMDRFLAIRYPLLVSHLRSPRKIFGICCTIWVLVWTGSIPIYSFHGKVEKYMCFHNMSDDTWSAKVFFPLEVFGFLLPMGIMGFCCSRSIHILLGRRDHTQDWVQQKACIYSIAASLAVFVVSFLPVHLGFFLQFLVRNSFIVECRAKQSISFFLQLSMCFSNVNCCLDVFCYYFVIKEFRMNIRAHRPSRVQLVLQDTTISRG

Molecule: C=C(C)[C@@H]1CCC(C)=C[C@H]1c1c(O)cc(CCCCC)cc1O [CBD, cannabidiol]
- increase of temperature threshold ([1]; 100 mg/kg, ref Anderson et al. 2019a, 2020, Kaplan et al. 2017): approximately 0.5 °C

Molecule: CCCCCc1cc2c(c(O)c1C(=O)O)C=CC(C)(CCC=C(C)C)O2 (centres unmarked) [CBCA]
- efficacy against hyperthermia-induced seizures [1, 7]: anticonvulsant

Molecule: C=C(C)[C@@H]1CCC(C)=C[C@H]1c1c(O)cc(CCCCC)c(C(=O)O)c1O [CBDA, cannabidiolic acid]
- efficacy against hyperthermia-induced seizures [1, 7]: anticonvulsant

Molecule: CCCCCc1cc(O)c(C/C=C(\C)CCC=C(C)C)c(O)c1 [CBG, cannabigerol]
- efficacy against hyperthermia-induced seizures [1, 7]: not effective

Molecule: CCCc1cc(O)c(C/C=C(\C)CCC=C(C)C)c(O)c1C(=O)O [CBGVA]
- efficacy against hyperthermia-induced seizures [1, 7]: anticonvulsant

Molecule: Lysophosphatidylinositol [LPI]
- effect on ERK phosphorylation [2]: No effect

Molecule: CCCCCc1cc(O)c(C/C=C(\C)CCC=C(C)C)c(O)c1C(=O)O [CBGA, Cannabigerolic acid]
- efficacy against hyperthermia-induced seizures ([1]; 30 mg/kg, ref Anderson et al. 2021b): effective
- increase of threshold temperature ([1]; 100 mg/kg, ref Anderson et al. 2021b): ~1 °C
- efficacy against hyperthermia-induced seizures [1, 7]: anticonvulsant properties
- activity at Cav3.1 channels [3]: inhibition
- brain penetration / brain uptake [4]: 2% and ~ 2%
- activity at GPR55 [5]: inhibition
- anticonvulsant properties in MES seizure threshold test [6]: anticonvulsant properties

Molecule: C=C(C)[C@@H]1CCC(C)=C[C@H]1c1c(O)cc(CCC)c(C(=O)O)c1O [CBDVA]
- efficacy against hyperthermia-induced seizures [1, 7]: anticonvulsant
